Results as given in US20250120425A1, “Combinations of Ketogenic Supplements for Rapid and Sustained Blood Ketone Levels in Dieters and Patients” (priority 2021, published 2025).

What was measured:
[1] = Blood βHB levels after single oral administration of ketogenic compounds in human subjects
Description: Table 1 is data depicting blood BHB levels of 4 male subjects with an average weight of 76 kg in a fasted state that received 5.5 grams of buffered (D) βHB together with 4.5 grams of (D)-1,3BD, 328 mg of Na+ in the form of NaHCO3 and 500 mg of K+ in the form of KHCO3, at 15, 30, 45 and 60 minutes after oral administration. […] That compound is an ester formed by reacting (D)-3-hydroxybutyrate and (D)-1,3-butanediol.
Table 2 is data depicting blood βHB levels after a single administration of 5.5 grams of buffered (D) βHB together with 4.5 grams of (D)-1,3BD, 328 mg of Na+ in the form of NaHCO3 and 500 mg of K+ in the form of KHCO3 in a fasted 70 kg subject who was following a strict ketogenic diet and keto adapted due at 15, 30, 45 and 60 minutes after oral administration.
Table 3 is data depicting blood BHB after a single administration of 10 grams of buffered (D) βHB acid with 328 mg of Na+ in the form of NaHCO3 and 500 mg of K+ in the form of KHCO3 in a fasted 75 kg subject and two fasted 65 kg female subjects at 15, 30, 45, 60 and 90 minutes after administration.
FIG. […] The total dose of 60 grams was administered 3 hours after a meal. […] Those esters are typically administered after an overnight fast on an empty stomach. […] FIG. 5 also includes blood samples for 2 esters of (D)-BHB. The first was from HVMN and consisted of […] of ester (2 commercially available 30 gram bottles). The second was the ester KE4 from KetoneAid and contained 60 net grams (2 commercially available 30 gram bottles). The choice of 60 grams of active ester was based on dosing protocols for elite athletes in the paper “Nutritional Ketosis Alters Fuel Preference and Thereby Endurance in Elite Athletes” Cell Metabolism Cox et al. 2016.

[2] = human, in vivo; cited from earlier work

Structure (SMILES): C[C@@H](O)CC(=O)O [10 g HB, (D)-beta-hydroxybutyrate]
- effectiveness at raising blood levels of (D)-βHB, pure (D) form versus racemic ([1]; human, in vivo): more than twice as effective

Structure (SMILES): CC(O)CCO (stereo not shown) [(D)-1,3BD, (D)-1,3-butanediol]
- serum level of (D)-beta-hydroxybutyrate reached ([1]; 10 grams, 75 kg person): 0.9 mmol
- effectiveness at raising serum levels of (D)-beta-hydroxybutyrate ([1]; (D) enantiomer compared with the racemic form): ~3 times
- mean blood BHB level ([1]; Table 4: 10 grams single administration, 72 kg fasted subject, T + 0): 0.0
- mean blood BHB level ([1]; Table 4: 10 grams, 72 kg fasted male, +15 Min): 0.6
- mean blood BHB level ([1]; Table 4: 10 grams, 72 kg fasted male, +30 Min): 0.9
- mean blood BHB level ([1]; Table 4: 10 grams, 72 kg fasted male, +45 Min): 0.9
- mean blood BHB level ([1]; Table 4: 10 grams, 72 kg fasted male, +60 Min): 0.5
- mean blood BHB level ([1]; Table 4: 10 grams, 72 kg fasted male, +90 Min): 0.3
- effectiveness at raising blood levels of (D)-βHB, pure (D) form versus racemic ([1]; for any given weight): more than twice as effective
- ketogenic power compared with the free acid (D)-βHB ([1]; gram to gram basis): the liver. On a gram to gram basis, it is a more powerful
- ketogenic power relative to the ketone ester ([1]; gram to gram basis): ~90% as powerful as the previously mentioned ketone ester

Structure (SMILES): C[C@@H](O)CCOC(=O)C[C@@H](C)O [(D)-3-hydroxybutyl-(D)-3-hydroxybutyrate]
- average serum increase for βHB [2]: 1.0 mmol/10 grams
